According to patent EP1561465A2, “Methods of use of fluoroquinolone compounds against bacteria” (LG Life Sciences, Ltd., priority 1999, dated 2001):
≈ marks a conversion by molar mass, not a printed value. Read-outs that look alike come from different tables or passages of the source.

What was measured:
Format in all cases: cell-based
Haemophilus influenzae = assay: MIC by NCCLS reference broth microdilution, 450 respiratory tract pathogens; conditions: Haemophilus influenzae; for MIC90: read-out: MIC90
Enterococcus faecalis = assay: MIC by NCCLS broth microdilution, 1100 Japanese clinical isolates 1997-1998; conditions: for MIC50 / MIC90: Enterococcus faecalis; for MIC90: read-out: MIC90
Shigella spp. = assay: as above; conditions: Shigella spp. (n=34)
Proteus vulgaris = assay: as above; conditions: Proteus vulgaris (n=25)
Morganella morganii = assay: as above
Providencia rettgeri = assay: as above; conditions: Providencia rettgeri (n=12)
Serratia marcescens = assay: as above; conditions: Serratia marcescens (n=30)
[1] = system: Gram positive anaerobic and facultative anaerobic pathogens; assay: microbe, parasite or virus in culture
[2] = MIC by agar dilution, Brucella HK agar, 491 anaerobic clinical isolates; conditions: clinical isolates of Bacteroides spp., Prevotella bivia and other Prevotella spp.
[3] = Haemophilus influenzae (n = 100)
[4] = Enterococcus faecalis ciprofloxacin resistant (n=15)
[5] = Enterococcus faecalis ciprofloxacin susceptible (n=24)

Question: With `C[C@@H]1CN(c2c(F)c(N)c3c(=O)c(C(=O)O)cn(C4CC4)c3c2F)C[C@H](C)N1` [Sparfloxacin, sparfloxacin] as the compound, how does the MIC (Haemophilus influenzae; [3]) read?
Answer: 0.0075 to 0.25 µg/mL (≈ 0.0191 to 0.637 µM)

Question: What about the MIC50 (Haemophilus influenzae; [3]) of the same compound?
Answer: 0.01 µg/mL (≈ 0.0255 µM)

Question: And the MIC90 (Haemophilus influenzae; [3])?
Answer: 0.03 µg/mL (≈ 0.0765 µM)

Question: And the MIC (Haemophilus influenzae; β-lactamase negative (n = 80))?
Answer: 0.0075 to 0.25 µg/mL (≈ 0.0191 to 0.637 µM)

Question: And the MIC50 (Haemophilus influenzae; β-lactamase negative (n = 80))?
Answer: 0.015 µg/mL (≈ 0.0382 µM)

Question: And the MIC90 (Haemophilus influenzae; β-lactamase negative (n = 80))?
Answer: 0.25 µg/mL (≈ 0.637 µM)

Question: What about the MIC (Haemophilus influenzae; β-lactamase positive (n = 20)) of the same compound?
Answer: 0.0075 to 0.12 µg/mL (≈ 0.0191 to 0.306 µM)

Question: What about the MIC50 (Haemophilus influenzae; β-lactamase positive (n = 20)) of the same compound?
Answer: 0.015 µg/mL (≈ 0.0382 µM)

Question: And the MIC90 (Haemophilus influenzae; β-lactamase positive (n = 20))?
Answer: 0.03 µg/mL (≈ 0.0765 µM)

Question: What about the “MIC Range” value (Enterococcus faecalis; [4]) of the same compound?
Answer: 0.5 to 64 µg/mL

Question: And the “MIC Range” value (Enterococcus faecalis; [5])?
Answer: 0.5 to 1 µg/mL

Question: And the MIC50 (Enterococcus faecalis; [4])?
Answer: 16 µg/mL (≈ 40.8 µM)

Question: And the MIC90 (Enterococcus faecalis; [4])?
Answer: 64 µg/mL (≈ 163 µM)

Question: And the MIC50 (Enterococcus faecalis; [5])?
Answer: 0.5 µg/mL (≈ 1.27 µM)

Question: What about the MIC90 (Enterococcus faecalis; [5]) of the same compound?
Answer: 1 µg/mL (≈ 2.55 µM)

Question: And the MIC50 (Shigella spp.)?
Answer: ≤ 0.008 µg/mL

Question: And the MIC90 (Shigella spp.)?
Answer: 0.032 µg/mL (≈ 0.0815 µM)

Question: What about the “MIC Range” value (Shigella spp.) of the same compound?
Answer: ≤0.008 to 0.032 µg/mL

Question: And the “MIC Range” value (Proteus vulgaris)?
Answer: 0.063 to 2 µg/mL

Question: What about the MIC50 (Proteus vulgaris; read-out: MIC50) of the same compound?
Answer: 0.25 µg/mL (≈ 0.637 µM)

Question: And the MIC90 (Proteus vulgaris; read-out: MIC90)?
Answer: 1 µg/mL (≈ 2.55 µM)

Question: What about the MIC50 (Morganella morganii; Morganella morganii) of the same compound?
Answer: 0.125 µg/mL (≈ 0.319 µM)

Question: And the “MIC Range” value (Morganella morganii; Morganella morganii (n=40))?
Answer: 0.063 to 16 µg/mL

Question: What about the MIC90 (Morganella morganii; Morganella morganii (n=40), read-out: MIC90) of the same compound?
Answer: 0.5 µg/mL (≈ 1.27 µM)

Question: What about the MIC90 (Providencia rettgeri) of the same compound?
Answer: 16 µg/mL (≈ 40.8 µM)

Question: And the “MIC Range” value (Providencia rettgeri)?
Answer: 0.125 to 16 µg/mL

Question: What about the MIC50 (Providencia rettgeri; read-out: MIC50) of the same compound?
Answer: 0.25 µg/mL (≈ 0.637 µM)

Question: What about the MIC90 (Serratia marcescens) of the same compound?
Answer: 2 µg/mL (≈ 5.1 µM)

Question: What about the “MIC Range” value (Serratia marcescens) of the same compound?
Answer: 0.063 to 64 µg/mL

Question: And the MIC50 (Serratia marcescens; read-out: MIC50)?
Answer: 0.25 µg/mL (≈ 0.637 µM)

Question: What about the MIC ([1]; Bifidobacterium adolescentis, ATCC15703) of the same compound?
Answer: 0.5 µg/mL (≈ 1.27 µM)

Question: And the MIC ([1]; Bifidobacterium bifidum, JCM1255)?
Answer: 2 µg/mL (≈ 5.1 µM)

Question: And the MIC ([1]; Bifidobacterium breve, ATCC15700)?
Answer: 2 µg/mL (≈ 5.1 µM)

Question: And the MIC ([1]; Bifidobacterium longum, ATCC15707)?
Answer: 2 µg/mL (≈ 5.1 µM)

Question: What about the MIC ([1]; Bifidobacterium pseudolongum, ATCC25526) of the same compound?
Answer: 2 µg/mL (≈ 5.1 µM)

Question: And the MIC ([1]; Clostridioides difficile)?
Answer: 8 µg/mL (≈ 20.4 µM)

Question: What about the MIC ([1]; Clostridium perfringens, ATCC13124) of the same compound?
Answer: 0.125 µg/mL (≈ 0.319 µM)

Question: What about the MIC ([1]; Clostridium septicum, ATCC12464) of the same compound?
Answer: 0.125 µg/mL (≈ 0.319 µM)

Question: And the MIC ([1]; Cutibacterium acnes, ATCC11828)?
Answer: 0.25 µg/mL (≈ 0.637 µM)

Question: And the MIC ([1]; Eggerthella lenta, ATCC25559)?
Answer: 0.5 µg/mL (≈ 1.27 µM)

Question: And the MIC ([1]; Finegoldia magna, ATCC29328)?
Answer: 0.125 µg/mL (≈ 0.319 µM)

Question: And the MIC ([1]; Gemella morbillorum, ATCC27824)?
Answer: 0.25 µg/mL (≈ 0.637 µM)

Question: And the MIC ([1]; Lacticaseibacillus casei, JCM1134)?
Answer: 0.125 µg/mL (≈ 0.319 µM)

Question: What about the MIC ([1]; Lactiplantibacillus plantarum, JCM1149) of the same compound?
Answer: 8 µg/mL (≈ 20.4 µM)

Question: And the MIC ([1]; Lactobacillus acidophilus, JCM1132)?
Answer: 32 µg/mL (≈ 81.5 µM)

Question: And the MIC ([1]; Levilactobacillus brevis, JCM1059)?
Answer: 2 µg/mL (≈ 5.1 µM)

Question: What about the MIC ([1]; Ligilactobacillus salivarius, JCM1231) of the same compound?
Answer: 0.5 µg/mL (≈ 1.27 µM)

Question: What about the MIC ([1]; Limosilactobacillus reuteri, JCM1112) of the same compound?
Answer: 2 µg/mL (≈ 5.1 µM)

Question: And the MIC ([1]; Limosilactobacillus reuteri, JCM1173)?
Answer: 2 µg/mL (≈ 5.1 µM)

Question: And the MIC ([1]; Paraclostridium sordellii, ATCC9714)?
Answer: 2 µg/mL (≈ 5.1 µM)

Question: And the MIC ([1]; Parvimonas micra)?
Answer: 0.5 µg/mL (≈ 1.27 µM)

Question: What about the MIC ([1]; Peptoniphilus asaccharolyticus) of the same compound?
Answer: 0.25 µg/mL (≈ 0.637 µM)

Question: What about the MIC ([1]; Peptoniphilus indolicus) of the same compound?
Answer: 0.06 µg/mL (≈ 0.153 µM)

Question: What about the MIC ([1]; Peptostreptococcus anaerobius, ATCC27337) of the same compound?
Answer: 0.5 µg/mL (≈ 1.27 µM)

Question: And the MIC ([1]; Schaalia odontolytica)?
Answer: 4 µg/mL (≈ 10.2 µM)

Question: What about the MIC ([1]; Staphylococcus saccharolyticus, ATCC14953) of the same compound?
Answer: 0.25 µg/mL (≈ 0.637 µM)

Question: And the MIC ([1]; Streptococcus constellatus, ATCC27823)?
Answer: 0.5 µg/mL (≈ 1.27 µM)

Question: What about the MIC ([1]; Streptococcus intermedius, ATCC27335) of the same compound?
Answer: 0.5 µg/mL (≈ 1.27 µM)

Question: What about the MIC ([1]; Thomasclavelia ramosa, ATCC25582) of the same compound?
Answer: 4 µg/mL (≈ 10.2 µM)

Question: And the MIC90 [2]?
Answer: 4 to 32 µg/mL (≈ 10.2 to 81.5 µM)
